# According to publication PMC7494911:
# Where “and” joins values, the source holds several entries; their conditions need not be identical. Equal values may be shown once. Read-outs that look alike come from different tables or passages of the source.
# Key:
# pSmad2 in IPF PCLS = assay: pSmad2 in precision cut lung slices (PCLS) from IPF patients; assay type: cell-based, human; conditions: for IPF PCLS pSmad2/tSmad2 ratio: 1 µM compound, individual replicates n=1-3 (Fig 5f)
# Procedure: Human fibrotic lung tissue was collected from human explants after transplantation. Tissue which the pathologist deemed suitable for research was inflated with 2–3% low boiling point agarose, with the agarose being allowed to set at 4 °C. PCLS were then cut at 400 μm on a vibrating microtome and cultured in DMEM media.
# pSmad2 in lung tissue = assay: Lung tissue pSmad2 in bleomycin-treated mice, single dose; assay type: in vivo, mouse
# Procedure: (§1) For the measurement of concentration-dependent effects of αvβ6 and TGFβR1 inhibitors on TGFβ activation and signaling in NHBE cells, pSmad2 (normalized to GAPDH) was measured. pSmad2 and GAPDH was quantified using the Milliplex TGFβ Signaling Magnetic Bead Panel 6 plex (Merck Millipore, Billerica, MA, USA) luminex assay according to the manufacturer’s instructions. pSmad2 was determined using the same method for in vivo and ex vivo tissue and BAL samples, however data were normalized to tSmad2. tSmad2 was measured in the Pathscan Total Smad2 sandwich ELISA kit (Cell Signaling Technologies, London, UK), according to the manufacturer’s instructions with standard curves generated using recombinant GST-Smad2. βIG-H3 was determined in mouse and human BAL fluid samples using the mouse or human βIG-H3 DuoSet ELISA kit (R&D Systems, Abingdon, USA) respectively, according to the manufacturer’s instructions. PAI-1 was determined in mouse and human BAL fluid samples using the mouse or human PAI-1 Total antigen ELISA kit (Molecular Innovations, Novi, MI, USA) respectively, according to the manufacturer’s instructions.
# (§2) Animal welfare followed the requirements of the Home Office Code of Practice for the Housing and Care of Animals used in Scientific Procedures. […] Play tunnels and bedding material were used to provide environmental enrichment. […]
# [1] = system: αvβ6-mediated TGFβ activation; assay: cells; assay type: cell-based, human; conditions: for activity: read-out: % inhibition of pSmad2 (NHBE cells); for IC50: Homo sapiens
# pSmad2 in BAL cells = assay type: in vivo, mouse; conditions: bleomycin mice
# Procedure: as §1, §2
# [2] = 30 mg/kg p.o., 2 h post dosing, in words
# [3] = SB-525334 30 mg/kg p.o., 2 h, individual animals, 30 mg/kg
compound,measurement,setting,value
O=C(O)C[C@@H]1Cc2ccc(OCCCNc3ccccn3)cc2CN(CC(F)(F)F)C1=O [SB-267268],IPF PCLS pSmad2/tSmad2 ratio,pSmad2 in IPF PCLS; IPF PCLS,0.766 and 0.64 and 0.76
same,pSmad2 levels in IPF PCLS,pSmad2 in IPF PCLS; in words,Neither compound inhibited pSmad2 levels
Cc1cccc(-c2[nH]c(C(C)(C)C)nc2-c2ccc3nccnc3c2)n1 [SB-525334],pSmad2 levels in lung tissue,pSmad2 in lung tissue; [2],significantly reduce
same,Lung tissue pSmad2/tSmad2 ratio,pSmad2 in lung tissue; [3],0.09 and 0.07 and 0.1 and 0.13
same,activity,[1]; Log [SB-525334] M -6,15% and 11% and 10% and 14%
same,activity,[1]; Log [SB-525334] M -9,138% and 105% and 82% and 100%
same,activity,[1]; Log [SB-525334] M -11.4,114%
same,pIC50 for inhibition of αvβ6-mediated TGFβ activation (pSmad2),[1]; NHBE cells,7.28 ± 0.13
same,IPF PCLS pSmad2/tSmad2 ratio,pSmad2 in IPF PCLS; IPF PCLS,0.063 and 0.062 and 0.055
same,% pSmad2 in IPF PCLS,pSmad2 in IPF PCLS; SB-525334 1µM,1% and 0% and -1%
same,pSmad2 levels in BAL cells,pSmad2 in BAL cells; [2],significantly reduce
same,BAL cell pSmad2/tSmad2 ratio,pSmad2 in BAL cells; [3],1.33 and 0.67 and 0.7 and 1.48 and 0.61 and 0.44 and 2.35 and 1.1 and 1
Cc1cc(C)n(-c2cccc([C@H](CC(=O)O)CN3CC[C@@H](CCc4ccc5c(n4)NCCC5)C3)c2)n1 [GSK3008348],IC50,"[1]; NHBE cells, read-out: IC50 for inhibition of αvβ6-mediated TGFβ activation (pSmad2)",0.15 nM
same,IC50,"[1]; NHBE cells, read-out: pIC50 for inhibition of αvβ6-mediated TGFβ activation (pSmad2) (converted)",0.741 nM
same,activity,[1]; Log [GSK3008348] M -9,47% and 37% and 58% and 41%
same,activity,[1]; Log [GSK3008348] M -10.8,108%
same,activity,[1],92% and 95%
same,IC50,"pSmad2 in IPF PCLS; Homo sapiens, IPF PCLS, 48 h, read-out: approximate IC50 for reduction of pSmad2",~3 nM
